# Data: ChEMBL document CHEMBL1149545, “Thyroid receptor ligands. Part 8: Thyromimetics derived from N-acylated-alpha-amino acid derivatives displaying modulated pharmacological selectivity compared with KB-141” (Bioorg Med Chem Lett, 2007)
# pEC50, pIC50: −log10 of the molar value.
# How the values were obtained:
# Homo sapiens = organism: Homo sapiens; assay: Selectivity ratio of IC50 for thyroid hormone receptor alpha-1 to IC50 for thyroid hormone receptor beta-1
# [1] = biological target: T1, Thyroid hormone receptor beta (Homo sapiens, UniProt P10828); assay: biochemical
# T1 sequence (P10828 whole entry): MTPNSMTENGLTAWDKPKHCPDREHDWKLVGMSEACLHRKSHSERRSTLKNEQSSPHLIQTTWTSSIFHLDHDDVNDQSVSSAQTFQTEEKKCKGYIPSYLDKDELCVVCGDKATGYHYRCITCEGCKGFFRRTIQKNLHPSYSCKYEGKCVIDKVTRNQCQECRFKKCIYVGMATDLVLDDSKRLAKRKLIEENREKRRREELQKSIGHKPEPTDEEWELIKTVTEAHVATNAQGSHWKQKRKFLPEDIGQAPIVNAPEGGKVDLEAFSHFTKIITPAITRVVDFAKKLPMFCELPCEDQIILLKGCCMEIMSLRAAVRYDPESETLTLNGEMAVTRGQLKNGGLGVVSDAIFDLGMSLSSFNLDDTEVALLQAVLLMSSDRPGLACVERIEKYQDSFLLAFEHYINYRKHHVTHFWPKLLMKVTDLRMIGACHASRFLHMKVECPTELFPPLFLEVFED
# Description: Binding affinity at human thyroid hormone receptor beta-1 expressed in CHOK1 cells
# [2] = biological target: T2, Thyroid hormone receptor alpha (Homo sapiens, UniProt P10827); assay: biochemical
# T2 sequence (P10827 whole entry): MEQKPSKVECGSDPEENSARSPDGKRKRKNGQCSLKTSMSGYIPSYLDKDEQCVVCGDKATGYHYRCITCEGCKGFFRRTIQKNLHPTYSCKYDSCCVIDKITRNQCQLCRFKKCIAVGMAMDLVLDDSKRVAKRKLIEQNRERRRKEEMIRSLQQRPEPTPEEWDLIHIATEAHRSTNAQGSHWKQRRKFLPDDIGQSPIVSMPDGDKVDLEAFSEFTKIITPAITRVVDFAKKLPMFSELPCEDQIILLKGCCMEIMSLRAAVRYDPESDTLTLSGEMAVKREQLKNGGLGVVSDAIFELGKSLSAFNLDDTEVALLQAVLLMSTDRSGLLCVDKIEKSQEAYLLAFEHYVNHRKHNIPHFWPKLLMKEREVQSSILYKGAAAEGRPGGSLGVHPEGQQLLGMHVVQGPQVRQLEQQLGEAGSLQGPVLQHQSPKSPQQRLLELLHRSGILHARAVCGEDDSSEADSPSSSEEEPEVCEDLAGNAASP
# Description: Binding affinity at human thyroid hormone receptor alpha 1 expressed in CHOK1 cells
# cells [3] = conditions: Homo sapiens, CHO-K1
# Description: (§1) Activity against TRAF-alpha-1 expressed in CHOK1 cells by alkaline phosphatase reporter gene assay
# CHO-K1 [4] = conditions: Homo sapiens
# Description: as §1
# Rattus norvegicus [5] = organism: Rattus norvegicus; assay: Ratio of ED15 for heart rate in cholesterol-fed rat to ED50 for cholesterol level in cholesterol-fed rat; type: functional
# cells [6] = conditions: Homo sapiens, CHO-K1; remark: listed apart in the source
# Description: (§2) Activity against TRAFbeta expressed in CHOK1 cells by alkaline phosphatse reporter gene assay
# Rattus norvegicus [7] = organism: Rattus norvegicus; assay: Ratio of ED30 for TSH in cholesterol-fed rat to ED50 for cholesterol level in cholesterol-fed rat; type: functional
# Rattus norvegicus [8] = assay: Increase in heart rate in po dosed cholesterol-fed rat; type: functional
# Rattus norvegicus [9] = assay: Decrease in cholesterol in po dosed cholesterol-fed rat; type: functional
# Rattus norvegicus [10] = assay: Decrease in TSH in po dosed cholesterol-fed rat; type: functional
# CHO-K1 [11] = conditions: Homo sapiens; remark: listed apart in the source
# Description: as §2
SMILES,Ratio IC50 (Homo sapiens),pIC50 [1],pIC50 [2],pEC50 (cells [3]),Activity (CHO-K1 [4]),Ratio (Rattus norvegicus [5]),pEC50 (cells [6]),Ratio (Rattus norvegicus [7]),ED15 (Rattus norvegicus [8]),ED50 (Rattus norvegicus [9]),ED30 (Rattus norvegicus [10]),Activity (CHO-K1 [11])
CC(C)c1cc(Oc2c(Br)cc(CC(=O)N[C@H](C(=O)O)c3ccccc3)cc2Br)ccc1O,5.7,9.11,8.12,–,–,–,–,–,–,–,–,–
CC(C)c1cc(Oc2c(Br)cc(CC(=O)N[C@H](C(=O)O)C(C)C)cc2Br)ccc1O,9.4,9.57,8.37,8.85,78%,19,9.11,3,1580 nmol/kg/day,82 nmol/kg/day,242 nmol/kg/day,92%
CC(C)c1cc(Oc2c(Br)cc(CC(=O)N[C@@H](C(=O)O)C(C)C)cc2Br)ccc1O,8.2,9.15,8.01,8.64,88%,–,8.92,–,–,–,–,100%
CC(C)c1cc(Oc2c(Br)cc(CC(=O)N[C@H](C(=O)O)C(C)C)cc2Br)cc(F)c1O,4.3,7.92,7.06,7.77,78%,–,7.96,–,–,–,–,88%
CC(C)c1cc(Oc2c(Br)cc(CC(=O)N[C@@H](C)C(=O)O)cc2Br)ccc1O,4.5,8.89,8.00,8.14,81%,–,8.59,–,–,–,–,92%
CC(C)c1cc(Oc2c(Br)cc(CC(=O)N[C@H](C(=O)O)C(C)C)cc2Br)cc(Cl)c1O,0.29,5.85,6.17,7.19,21%,–,6.68,–,–,–,–,31%
CC(C)c1cc(Oc2c(Br)cc(CC(=O)N[C@H](CC(=O)O)C(=O)O)cc2Br)ccc1O,3.8,7.59,6.77,7.18,74%,–,7.42,–,–,–,–,88%
N[C@@H](Cc1cc(I)c(Oc2ccc(O)c(I)c2)c(I)c1)C(=O)O [LIOTHYRONINE],–,–,–,–,–,–,–,–,31 nmol/kg/day,21 nmol/kg/day,6.7 nmol/kg/day,–
CC(C)c1cc(Oc2c(Br)cc(CC(=O)NCC(=O)O)cc2Br)ccc1O,5.9,8.57,7.59,6.99,75%,–,7.38,–,–,–,–,85%
CC(C)c1cc(Oc2c(Br)cc(CC(=O)N[C@@H](CC(=O)O)C(=O)O)cc2Br)ccc1O,0.9,6.54,6.34,5.82,72%,–,5.89,–,–,–,–,84%
CC(C)c1cc(Oc2c(Br)cc(CC(=O)N[C@H](C)C(=O)O)cc2Br)ccc1O,8.3,8.23,7.08,7.82,83%,–,8.12,–,–,–,–,100%
CC(C)c1cc(Oc2c(Cl)cc(CC(=O)O)cc2Cl)ccc1O,–,–,–,–,–,–,–,–,2900 nmol/kg/day,72 nmol/kg/day,32 nmol/kg/day,–
Cc1cc(Oc2c(Br)cc(CC(=O)N[C@H](C(=O)O)C(C)C)cc2Br)cc(C(C)C)c1O,0.34,5.59,5.82,6.77,13%,–,5.96,–,–,–,–,27%
CC(C)c1cc(Oc2c(Br)cc(CC(=O)N[C@@H](C(=O)O)c3ccccc3)cc2Br)ccc1O,6,9.22,8.26,8.82,65%,–,9.14,–,–,–,–,85%
